In PubChem BioAssay AID330 (DTP/NCI, 2004):
Values joined by “and” are separate entries in the source; they are usually repeats but may differ in a detail not shown here. Equal entries are not always repeated. Toxic doses and inconclusive results are not listed.

Tested on: P388 leukemia ip, CD2F1 mice, survival T/C
Assay: NCI In Vivo Anticancer Drug Screen. Data for tumor model P388 Leukemia (intraperitoneal) in CD2F1 (CDF1) mice
Conditions: endpoint: median survival time, higher = longer survival
Method in brief: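 Mice carrying the transplanted tumor received test compound or vehicle. Survival was recorded in each group, and the value is the treated-group measurement divided by that of the vehicle-treated control group.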

[1] = dose: 60.0 mg/kg/injection, schedule: Q01DX005 (ip), vehicle: saline with Tween-80
[2] = dose: 120.0 mg/kg/injection, schedule: Q01DX005 (ip), vehicle: saline with Tween-80
[3] = dose: 240.0 mg/kg/injection, schedule: Q01DX005 (ip), vehicle: saline with Tween-80
[4] = dose: 25.0 mg/kg/injection, schedule: Q01DX005 (ip), vehicle: saline with Tween-80
[5] = dose: 50.0 mg/kg/injection, schedule: Q01DX005 (ip), vehicle: saline with Tween-80
[6] = dose: 200.0 mg/kg/injection, schedule: Q01DX005 (ip), vehicle: saline with Tween-80
[7] = dose: 50.0 mg/kg/injection, schedule: Q01DX005 (ip), vehicle: saline
[8] = dose: 100.0 mg/kg/injection, schedule: Q01DX005 (ip), vehicle: saline
[9] = dose: 50.0 mg/kg/injection, schedule: Q01DX005 (ip), vehicle: Klucel (hydroxypropylcellulose) (HPC)
[10] = dose: 100.0 mg/kg/injection, schedule: Q01DX005 (ip), vehicle: Klucel (hydroxypropylcellulose) (HPC)
[11] = dose: 200.0 mg/kg/injection, schedule: Q01DX005 (ip), vehicle: Klucel (hydroxypropylcellulose) (HPC)
[12] = dose: 100.0 mg/kg/injection, schedule: Q01DX005 (ip), vehicle: saline with Tween-80
[13] = dose: 100.0 mg/kg/injection, schedule: Q01DX009 (ip), vehicle: saline with Tween-80
[14] = dose: 200.0 mg/kg/injection, schedule: Q01DX009 (ip), vehicle: saline with Tween-80

## COC(=O)C1(C(C(=O)c2ccccc2)c2ccccc2)NC(=S)NC(=O)C1C#N (stereo not drawn)
[1]
  T/C: 100 % of control
[2]
  T/C: 105 % of control
[3]
  T/C: 100 % of control

## C/C(O)=C(/N=Nc1ccccc1)C(=O)O
[1]
  T/C: 110 % of control
[2]
  T/C: 98 % of control

## Cc1cccc(OC(=O)Nc2ccc(C(=O)O)c(O)c2)c1
[1]
  T/C: 106 % of control
[2]
  T/C: 90 % of control

## N#CC(=O)Nc1cc(Cl)cc(Cl)c1
dose: 7.5 mg/kg/injection, schedule: Q01DX005 (ip), vehicle: saline with Tween-80
  T/C: 100 % of control
dose: 15.0 mg/kg/injection, schedule: Q01DX005 (ip), vehicle: saline with Tween-80
  T/C: 102 % of control

## CCC1(O)C(=O)Nc2ccc(OC)cc2C1=O (stereo not drawn)
dose: 60.0 mg/kg/injection, schedule: Q01DX005 (ip), vehicle: Klucel (hydroxypropylcellulose) (HPC)
  T/C: 97 % of control
dose: 120.0 mg/kg/injection, schedule: Q01DX005 (ip), vehicle: Klucel (hydroxypropylcellulose) (HPC)
  T/C: 93 % of control
dose: 240.0 mg/kg/injection, schedule: Q01DX005 (ip), vehicle: Klucel (hydroxypropylcellulose) (HPC)
  T/C: 93 % of control

## CC1(C)OC(=O)C(=Cc2ccc(C#N)cc2)C(=O)O1
[1]
  T/C: 108 % of control
[2]
  T/C: 102 % of control
[3]
  T/C: 111 % of control

## C[C@]12CC[C@H](O)C[C@@H]1CC[C@@H]1[C@@H]2CC[C@]2(C)c3nc4ccccc4c(C(=O)O)c3C[C@@H]12
dose: 12.5 mg/kg/injection, schedule: Q01DX005 (ip), vehicle: saline with Tween-80
  T/C: 101 % of control
[4]
  T/C: 100 % of control
[5]
  T/C: 86 % of control and 94 % of control
[6]
  T/C: 93 % of control

## CCOP(=O)(OCC)C(N)Cc1c[nH]c2ccccc12 (stereo not drawn)
[7]
  T/C: 101 % of control
[8]
  T/C: 104 % of control

## CC1CN2CC(C)O[Si](CCCCCC[Si]34OC(C)CN(CC(C)O3)CC(C)O4)(O1)OC(C)C2 (stereo not drawn)
[9]
  T/C: 108 % of control
[10]
  T/C: 97 % of control
[11]
  T/C: 97 % of control

## CCCCC(=C=NCCCN(C)C)CC
[7]
  T/C: 99 % of control
[8]
  T/C: 92 % of control
dose: 200.0 mg/kg/injection, schedule: Q01DX005 (ip), vehicle: saline
  T/C: 101 % of control

## COc1ccccc1-n1c(=S)n(-c2ccccc2C)c2nc3ccccc3nc1/c2=N\Nc1ccccn1
[5]
  T/C: 100 % of control
[12]
  T/C: 102 % of control

## O=[N+]([O-])c1cc2c(cc1Br)C1C(C3C2C2(Cl)C(Cl)=C(Cl)C3(Cl)C2(Cl)Cl)C2(Cl)C(Cl)=C(Cl)C1(Cl)C2(Cl)Cl (stereo not drawn)
dose: 50.0 mg/kg/injection, schedule: Q01DX009 (ip), vehicle: saline
  T/C: 107 % of control
dose: 100.0 mg/kg/injection, schedule: Q01DX009 (ip), vehicle: saline
  T/C: 105 % of control
dose: 200.0 mg/kg/injection, schedule: Q01DX009 (ip), vehicle: saline
  T/C: 108 % of control

## CN(/N=C(C#N)/C(N)=N/N)c1ccccc1
dose: 100.0 mg/kg/injection, schedule: Q04DX002 (ip), vehicle: saline with Tween-80
  T/C: 96 % of control
dose: 200.0 mg/kg/injection, schedule: Q04DX002 (ip), vehicle: saline with Tween-80
  T/C: 96 % of control

## CC(O)(CSc1ccccc1)CSc1ccccc1 (tested in a mixture with another compound)
[4]
  T/C: 102 % of control
[5]
  T/C: 100 % of control
[12]
  T/C: 98 % of control
[6]
  T/C: 100 % of control

## COc1cccc2c1C(=O)c1c(O)c3c(c(O)c1C2=O)CC(O)(C(=O)CO)CC3OC1CC(N)C(O)C(C)O1.[Cl][Pt+2][Cl].[NH2-].[NH2-] (stereo not drawn)
dose: 8.0 mg/kg/injection, schedule: Q04DX003 (ip), vehicle: DMSO
  T/C: 171 % of control and 182 % of control
dose: 16.0 mg/kg/injection, schedule: Q04DX003 (ip), vehicle: DMSO
  T/C: 174 % of control and 193 % of control
dose: 32.0 mg/kg/injection, schedule: Q04DX003 (ip), vehicle: DMSO
  T/C: 118 % of control
dose: 64.0 mg/kg/injection, schedule: Q04DX003 (ip), vehicle: DMSO
  T/C: 100 % of control

## Cc1cc2c(c3c1C(C)CCC3=O)C(C)(C)CC2(C)C (stereo not drawn)
dose: 50.0 mg/kg/injection, schedule: Q01DX005 (ip), vehicle: saline + Tween-80 + alcohol
  T/C: 101 % of control
dose: 100.0 mg/kg/injection, schedule: Q01DX005 (ip), vehicle: saline + Tween-80 + alcohol
  T/C: 108 % of control
dose: 200.0 mg/kg/injection, schedule: Q01DX005 (ip), vehicle: saline + Tween-80 + alcohol
  T/C: 104 % of control

## CC(C(=O)O)c1cccc2nc(-c3ccccc3)oc12 (stereo not drawn)
[13]
  T/C: 112 % of control
[14]
  T/C: 102 % of control

## O=[N+]([O-])c1cc(C(Nc2nncs2)Nc2nncs2)ccc1Cl
dose: 30.0 mg/kg/injection, schedule: Q01DX005 (ip), vehicle: saline with Tween-80
  T/C: 91 % of control
[1]
  T/C: 109 % of control and 87 % of control
[3]
  T/C: 150 % of control

## COc1cc2c(c(OC)c1OC)-c1ccc(SC)c(=O)cc1C(NC(=O)c1ccccc1)CC2 (stereo not drawn)
dose: 2.5 mg/kg/injection, schedule: Q01DX009 (ip), vehicle: Klucel (hydroxypropylcellulose) (HPC)
  T/C: 155 % of control
dose: 5.0 mg/kg/injection, schedule: Q01DX009 (ip), vehicle: Klucel (hydroxypropylcellulose) (HPC)
  T/C: 117 % of control
dose: 625.0 micrograms/kg/injection, schedule: Q01DX009 (ip), vehicle: Klucel (hydroxypropylcellulose) (HPC)
  T/C: 112 % of control
dose: 1250.0 micrograms/kg/injection, schedule: Q01DX009 (ip), vehicle: Klucel (hydroxypropylcellulose) (HPC)
  T/C: 120 % of control
dose: 10000.0 micrograms/kg/injection, schedule: Q01DX009 (ip), vehicle: Klucel (hydroxypropylcellulose) (HPC)
  T/C: 90 % of control

## Cc1cc(N)ccc1N=Nc1ccc(N=Nc2ccc(N=Nc3ccc4cc(S(=O)(=O)O)cc(S(=O)(=O)O)c4c3)c(C)c2)c(C)c1
[5]
  T/C: 114 % of control and 122 % of control
[12]
  T/C: 115 % of control and 118 % of control and 124 % of control
[6]
  T/C: 115 % of control

## O=C(Oc1cc(O)cc2[o+]c(-c3ccc(O)cc3)c(O)cc12)c1ccccc1
[9]
  T/C: 96 % of control
[10]
  T/C: 109 % of control
[11]
  T/C: 96 % of control

## CC(=O)OC1=C(Br)CCc2ccccc21
dose: 3.12 mg/kg/injection, schedule: Q01DX009 (ip), vehicle: DMSO
  T/C: 103 % of control
dose: 6.25 mg/kg/injection, schedule: Q01DX009 (ip), vehicle: DMSO
  T/C: 108 % of control
dose: 12.5 mg/kg/injection, schedule: Q01DX009 (ip), vehicle: DMSO
  T/C: 90 % of control and 96 % of control
dose: 25.0 mg/kg/injection, schedule: Q01DX009 (ip), vehicle: DMSO
  T/C: 93 % of control

## Cn1nc2c(c(Cl)c1=O)Nc1ccccc1O2
[1]
  T/C: 108 % of control
[2]
  T/C: 104 % of control
[3]
  T/C: 96 % of control

## Cn1c2c(c(=O)n(C)c1=O)Cc1cc(CC(=O)O)ccc1N2
dose: 100.0 mg/kg/injection, schedule: Q01DX001 (ip), vehicle: saline with Tween-80
  T/C: 99 % of control
dose: 200.0 mg/kg/injection, schedule: Q01DX001 (ip), vehicle: saline with Tween-80
  T/C: 97 % of control
dose: 400.0 mg/kg/injection, schedule: Q01DX001 (ip), vehicle: saline with Tween-80
  T/C: 96 % of control

## CC1CCCCN1C(=S)Nc1ccc(S(=O)(=O)N2CCCCC2)cc1 (stereo not drawn)
dose: 50.0 mg/kg/injection, schedule: Q01DX009 (ip), vehicle: Klucel (hydroxypropylcellulose) (HPC)
  T/C: 94 % of control
dose: 100.0 mg/kg/injection, schedule: Q01DX009 (ip), vehicle: Klucel (hydroxypropylcellulose) (HPC)
  T/C: 101 % of control
dose: 200.0 mg/kg/injection, schedule: Q01DX009 (ip), vehicle: Klucel (hydroxypropylcellulose) (HPC)
  T/C: 92 % of control

## O=C(/C=C/c1ccc([N+](=O)[O-])cc1)NN=C(c1ccccc1)c1ccccc1
dose: 50.0 mg/kg/injection, schedule: Q01DX009 (ip), vehicle: saline with Tween-80
  T/C: 106 % of control and 96 % of control
[13]
  T/C: 99 % of control and 91 % of control
[14]
  T/C: 98 % of control
dose: 400.0 mg/kg/injection, schedule: Q01DX009 (ip), vehicle: saline with Tween-80
  T/C: 99 % of control
